Reference: patent US20240336606A1 (Suzhou Zelgen Biopharmaceuticals Co., Ltd., priority 2020, published 2024)

System: H358 cells
Test: Inhibition of H358 cell proliferation (CellTiter-Glo 3D, 7 days)
Format: cell-based
Conditions: Homo sapiens, 168 h, NCI-H358, 7 days, read-out: IC50 (nM), inhibitory activity on H358 cell proliferation
Method: • (a) The cells were thawed in T75 cell culture flasks:
• (b) When 80-90% cell confluence was achieved, the cells were passaged.
The diluted test compounds were added to a 384-well cell culture plate using a nanoliter pipetting system, and duplicate wells were set. An equal volume of medium was added to the positive control group; an equal volume of DMSO was added to the negative control group. The plate was centrifuged at 1000 rpm at room temperature for 1 min.
The cells were inoculated into a) 384-well culture plate, an equal volume of cells was added to the negative control group, and only an equal volume of medium was added to the positive control group. The plate was centrifuged at 1000 rpm at room temperature for 1 min. The final concentration of DMSO in the final compounds was 0.5%. The plate was incubated in a thermostatic incubator at 37° C. with 5% CO2 for 7 days.
CellTiter-Glo® 3D was added to b) 384-well cell culture plate at 20 μL/well. The plate was shaken at 320 rpm in the dark for 20 min, and incubated at room temperature in the dark for 2 h. The luminescence values were read using an Envision multi-mode microplate reader.
The inhibition rates of the compounds at different concentrations were calculated in Excel, and then inhibition curves were plotted and relevant parameters including minimum inhibition rate, maximum inhibition rate and IC50 were calculated using GraphPad Prism software.

IC50 [nM] | SMILES
9.92 | COc1cc2nc(C)nc(N[C@H](C)c3cc(N)cc(C(F)(F)C(C)(C)O)c3)c2cc1OCCOc1cccnc1 [Example 115, (R)-1-(3-Amino-5-(1-(7-methoxy-2-methyl-6-(2-(pyridine-3-oxy)ethoxy)quinazolin-4-yl)amino)ethyl)phenyl-1,1-difluoro-2-methylpropan-2-ol]
10.4 | COCCOc1cc2nc(C)nc(N[C@H](C)c3cc(N)cc(C(F)(F)C(C)(C)O)c3)c2cc1OCCOC [Example 113, (R)-1-(3-Amino-5-(1-((6,7-bis(2-methoxyethoxy)-2-methylquinazolin-4-yl)amino)ethyl)phenyl)-1,1-difluoro-2-methylpropan-2-ol]
40.9 | COc1cc2nc(C)nc(N[C@H](C)c3cccc(C(F)(F)C(C)(C)O)c3F)c2cc1OCCOC1CC1 [Example 93, (R)-1-(3-(1-((6-(2-Cyclopropyloxyethoxy)-7-methoxy-2-methylquinazolin-4-yl)amino)ethyl)-2-fluorophenyl)-1,1-difluoro-2-methylpropan-2-ol]
4.29 | COc1cc2nc(C)nc(N[C@H](C)c3cc(N)cc(C(F)(F)C(C)(C)O)c3)c2cc1OCCOC1CC1 [Example 116, (R)-1-(3-Amino-5-(1-((6-(2-cyclopropoxyethoxy)-7-methoxy-2-methylquinazolin-4-yl)amino)ethyl)phenyl)-1,1-difluoro-2-methylpropyl-2-ol]
15.5 | COCCOc1cc2c(N[C@H](C)c3cccc(C(F)(F)C(C)(C)O)c3F)nc(C)nc2cc1-c1cccnc1 [Example 101, (R)-1,1-Difluoro-1-(2-fluoro-3-(1-((6-(2-methoxyethoxy)-2-methyl-7-(pyridin-3-yl)quinazolin-4-yl)amino)ethyl)phenyl)-2-methylpropyl-2-ol]
2.65 | COc1cc2nc(C)nc(N[C@H](C)c3cc(N)cc(C(F)(F)C(C)(C)O)c3)c2cc1OCCOC1COC1 [Example 117, (R)-1-(3-Amino-5-(1-((7-methoxy-2-methyl-6-(2-(oxetan-3-yloxy)ethoxy)quinazolin-4-yl)amino)ethyl)phenyl)-1,1-difluoro-2-methylpropyl-2-ol]
11.5 | COCCOCCOc1cc2c(N[C@H](C)c3cc(N)cc(C(F)(F)C(C)(C)O)c3)nc(C)nc2cc1OC [Example 119, (R)-1-(3-Amino-5-(1-(7-methoxy-6-(2-(2-methoxyethoxy)ethoxy)-2-methylquinazolin-4-yl)amino)ethylphenyl)-1,1-difluoro-2-methylpropan-2-ol]
48.6 | COCCOc1cc2c(N[C@H](C)c3cccc(C(F)(F)C(C)(C)O)c3C)nc(C)nc2cc1OC [Example 90, (R)-1,1-Difluoro-1-(3-(1-((7-methoxy-6-(2-methoxyethoxy)-2-methylquinazolin-4-yl)amino)ethyl)-2-methylphenyl)-2-methylpropan-2-ol]
13.3 | COCCOc1cc2c(N[C@H](C)c3cccc(C(F)(F)C(C)(C)O)c3F)nc(C)nc2cc1-c1cnn(C)c1 [Example 102, (R)-1,1-Difluoro-1-(2-fluoro-3-(1-((6-(2-methoxyethoxy)-2-methyl-7-(1-methyl-1H-pyrazol-4-yl)quinazolin-4-yl)amino)ethyl)phenyl)-2-methylpropyl-2-ol]
2.65 | COc1cc2nc(C)nc(N[C@H](C)c3cc(N)cc(C(F)(F)C(C)(C)O)c3)c2cc1OCCOC1CC1(F)F (stereo partly drawn) [Example 118]
15.5 | [2H]C([2H])([2H])Oc1cc2nc(C)nc(N[C@H](C)c3cccc(C(F)(F)C(C)(C)O)c3F)c2cc1OCCOC [Example 97, (R)-1,1-Difluoro-1-(2-fluoro-3-(1-((7-deuteratedmethoxy-6-(2-methoxyethoxy)-2-methylquinazolin-4-yl)amino)ethyl)phenyl)-2-methylpro pan-2-ol]
20 | COCCOc1cc2c(N[C@H](C)c3cccc(C(F)(F)C(C)(C)O)c3F)nc(C)nc2cc1OC(C)C [Example 99, (R)-1,1-Difluoro-1-(2-fluoro-3-(1-((7-isopropoxy-6-(2-methoxyethoxy)-2-methylquinazolin-4-yl)amino)ethyl)phenyl)-2-methylpropan-2-ol]
34.7 | C#Cc1cc2nc(C)nc(N[C@H](C)c3cccc(C(F)(F)C(C)(C)O)c3F)c2cc1OCCOC [Example 153, (R)-1-(3-(1-(7-ethynyl-6-(2-methoxyethoxy)-2-methylquinazoline-4-amino)ethyl)-2-fluorophenyl)-1,1-difluoro-2-methylpropan-2-ol]
> 10000 | COCCOc1cc2c(N[C@H](C)c3cc(C#N)cc(C(F)(F)C(C)(C)O)c3)nc(C)nc2cc1OC [Example 91, (R)-3-(1,1-Difluoro-2-hydroxy-2-methylpropane)-5-(1-((7-methoxy-6-(2-methoxyethoxy)-2-methylquinazolin-4-yl)amino)ethyl)benzonitrile]
32.8 | COCCOc1cc2c(N[C@H](C)c3cc(N)cc(C(F)(F)C(C)(C)O)c3)nc(C)nc2cc1-c1cc[nH]n1 [Example 123, (R)-1-(3-Amino-5-(1-((6-(2-methoxyethoxy)-2-methyl-7-(1H-pyrazolyl-3-yl)quinazolin-4-yl)amino)ethyl)phenyl)-1,1-difluoro-2-methylpropan-2-ol]

Target: T1, binding of KRAS^G12C to SOS1 (Homo sapiens, UniProt Q07889)
T1 construct: Tag1 (unspecified)
T1 sequence (Q07889 1-1333): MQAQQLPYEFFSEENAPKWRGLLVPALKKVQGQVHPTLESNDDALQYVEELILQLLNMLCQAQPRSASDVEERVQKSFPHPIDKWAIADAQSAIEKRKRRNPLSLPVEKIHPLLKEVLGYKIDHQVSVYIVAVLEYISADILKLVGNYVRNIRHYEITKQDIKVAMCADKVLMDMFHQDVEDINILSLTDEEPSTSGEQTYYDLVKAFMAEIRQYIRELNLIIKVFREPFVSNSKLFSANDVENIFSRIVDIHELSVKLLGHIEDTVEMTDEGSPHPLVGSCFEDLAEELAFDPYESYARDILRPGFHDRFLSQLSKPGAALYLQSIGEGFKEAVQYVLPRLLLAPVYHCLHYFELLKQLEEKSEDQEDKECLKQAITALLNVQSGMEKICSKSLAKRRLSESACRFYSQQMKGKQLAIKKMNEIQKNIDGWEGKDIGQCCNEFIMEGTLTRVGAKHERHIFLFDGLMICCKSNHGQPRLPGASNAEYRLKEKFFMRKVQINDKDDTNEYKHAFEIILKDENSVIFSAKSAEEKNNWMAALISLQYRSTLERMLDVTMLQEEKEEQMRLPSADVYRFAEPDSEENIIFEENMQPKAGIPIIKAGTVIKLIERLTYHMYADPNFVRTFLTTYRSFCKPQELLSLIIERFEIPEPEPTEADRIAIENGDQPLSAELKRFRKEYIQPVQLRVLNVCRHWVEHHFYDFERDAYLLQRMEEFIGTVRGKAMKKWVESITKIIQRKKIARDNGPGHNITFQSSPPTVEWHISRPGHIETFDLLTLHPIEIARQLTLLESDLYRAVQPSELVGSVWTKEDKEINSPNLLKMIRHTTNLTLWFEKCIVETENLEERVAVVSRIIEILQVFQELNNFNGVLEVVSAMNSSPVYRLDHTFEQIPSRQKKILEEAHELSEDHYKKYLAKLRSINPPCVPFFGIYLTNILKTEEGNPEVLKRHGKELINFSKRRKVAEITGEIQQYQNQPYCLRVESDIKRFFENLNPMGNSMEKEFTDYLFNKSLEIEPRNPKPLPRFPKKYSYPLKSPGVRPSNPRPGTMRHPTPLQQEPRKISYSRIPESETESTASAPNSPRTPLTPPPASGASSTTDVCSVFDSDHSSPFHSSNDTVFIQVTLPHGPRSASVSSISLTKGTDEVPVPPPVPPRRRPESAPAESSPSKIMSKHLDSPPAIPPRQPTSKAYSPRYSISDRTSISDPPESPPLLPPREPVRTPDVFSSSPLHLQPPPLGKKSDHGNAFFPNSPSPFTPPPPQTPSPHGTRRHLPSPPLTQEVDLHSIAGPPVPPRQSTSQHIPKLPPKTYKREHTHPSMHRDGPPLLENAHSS
Test: Inhibition of the binding of KRAS^G12C to SOS1
Conditions: Tag1-SOS1 / Tag2-KRAS^G12C, 2 h incubation at room temperature; read-out: IC50 (nM), inhibitory activity on the binding of KRAS^G12C to SOS1
In short: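 Tag1-SOS1 and Tag2-KRAS^G12C mixed with serially diluted compound (final 0.25% DMSO), then anti-Tag1-Tb3+ and anti-Tag2-XL665 added for 2 h at room temperature. IC50 from curve fit of the TR-FRET signal.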

IC50 [nM] | SMILES
> 1000 | COc1cc2nc(C)nc(N[C@H](C)c3cc(C(F)(F)F)ccn3)c2cc1OCCOC1CC1 [Example 36, (R)-6-(2-Cyclopropoxyethyloxy)-7-methoxy-2-methyl-N-(1-(4-(trifluoromethyl)pyridin-2-yl)ethyl)quinazolin-4-amine]
7.4 | COc1cc2nc(C)nc(N[C@H](C)c3cc(N)cc(C(F)(F)F)c3)c2cc1OC[C@H](C)OC [Example 47]
924 | COCCOc1cc2c(N[C@H](C)c3cncc(C(F)(F)C(C)(C)O)c3)nc(C)nc2cc1OC [Example 77]
18 | COc1cc2nc(C)nc(N[C@H](C)c3cc(C(F)(F)F)cc(N)n3)c2cc1OCCOC1COC1 [Example 60, (R)—N-(1-(6-Amino-4-(trifluoromethyl)pyridin-2-yl)ethyl)-7-methoxy-2-methyl-6-(2-(oxetan-3-yloxy)ethoxy)quinazolin-4-amine]
20 | COCCOc1cc2c(N[C@H](C)c3cccc(C(F)(F)C(C)(C)O)c3Cl)nc(C)nc2cc1OC [Example 88, (R)-1-(2-Chloro-3-(1-((7-methoxy-6-(2-methoxyethoxy)-2-methylquinazolin-4-yl)amino)ethyl)phenyl)-1,1-difluoro-2-methylpropan-2-ol]
7 | COc1cc2nc(C)nc(N[C@H](C)c3cc(N)cc(C(F)(F)F)c3)c2cc1OCCN(C)CC1CC(F)(F)C1 [Example 22, (R)—N-(1-(3-amino-5-(trifluoromethyl)phenyl)ethyl)-6-(2-(((3,3-difluorocyclobutyl)methyl)(methyl)amino)ethoxy)-7-methoxy-2-methylquinazolin-4-amine]
